Key:
[1] = system: rats rendered neuropathic via the SNI Model; test: Analgesic effect in spared nerve injury (SNI) model of neuropathic pain; type: in vivo, Sprague-Dawley rats; conditions: mean ± standard error of the mean
Procedure: (§1) Adult, male Sprague-Dawley rats were obtained from Charles River Laboratories (Wilmington, Mass.) and housed under standard conditions at the Institut Armand-Frappier (Laval, QC). Food and water were provided to experimental animals ad libitum, and rats weighed 175-200 grams at the time of assessment.
(§2) Compounds were prepared for intraperitoneal administration by dissolving them in a vehicle of hydroxypropyl methylcellulose (Sigma, St-Louis, Mo.); total volume of solution administered to rats was 10 ml/kg.
Neuropathic pain was induced in rats via spared nerve injury (SNI) of the left sciatic nerve in accordance with the procedure described by Decosterd & Woolf (Pain 2000; 87(2):149-58). Briefly, under isoflurane anesthesia, the sciatic nerve was exposed by dissection at the level of lower thigh, and a lesion of two of the three terminal branches of the nerve (tibial and common peroneal nerves) were performed leaving the remaining sural nerve intact. The incision was closed-up using simple suturing, and the rats allowed to recover.
(§3) After approximately two weeks, a stable allodynia to blunt mechanical stimuli was identified in the hind paw ipsilateral to the SNI or CCI, manifested as a reduction of 50% withdrawal threshold, and identified using the Von Frey technique, as described by Chaplan et al. (J. Neurosci. Methods 1994; 53(1):55-63), or the Hargreaves method, as described by Hargreaves et al. (Pain 1988; 32(1):77-88). Rats were considered to be fully neuropathic upon displaying a 50% withdrawal threshold of ≦3.5 grams consistently over the course of 72 hours.
(§4) Compounds were administered to neuropathic rats via acute local delivery in the intraperitoneal space or by oral gavage.

[2] = system: rats rendered neuropathic via the CCI model; test: Analgesic effect in chronic constriction injury (CCI) model of neuropathic pain; type: in vivo, Sprague-Dawley rats; conditions: mean ± standard error of the mean
Procedure: as §1, §2
Alternatively, neuropathic pain was induced in rats via chronic constriction injury (CCI) of the left sciatic nerve with the procedure described by Bennett & Xie (Pain 1988; 33(1):87-107). Briefly, under isoflurane anaesthesia, the sciatic nerve was exposed by dissection at the level of the lower thigh and four loose ligatures (USP 4/0, Braun Melsaugen, FRG) were implanted around the nerve—with due attention not to interrupt the epineural circulation. The incision was closed-up using simple suturing, and the rats allowed to recover.
as §3, §4

[3] = system: mice subjected to the Minimal Clonic Seizure model; test: Minimal Clonic Seizure test (psychomotor seizure model of partial epilepsy, 6 Hz); type: in vivo; conditions: 100 mg/kg intraperitoneally, 32 mA, 3 seconds
Procedure: Adult mice are pretreated with 100 mg/kg of test compound, acutely administered intraperitoneally. At varying times (15, 30, 60, 120 and 240 minutes post-treatment), animals are challenged with sufficient current (32 mA, 6 Hz, for 3 seconds) delivered through corneal electrodes to elicit a psychomotor seizure. Untreated mice will display seizures characterized by a minimal clonic phase followed by stereotyped, automatistic behaviors similar to the aura of human patients with partial seizures. Animals not displaying this behavior are considered protected (Barton et al., Epilepsy Res. 2001; 47(3):217-27). Results are expressed as the number of animal protected out of the number of animal tested over time.

Structure (SMILES) | Peak 50% withdrawal threshold [1] | Peak paw withdrawal latency [2] | also measured
Cc1cc(O)nc(SCc2c(Cl)ccnc2Cl)n1 [2-{[(2,4-dichloropyridin-3-yl)methyl]sulfanyl}-6-methylpyrimidin-4-ol] | 7.74 ± 2.13 g |  | 
CCc1ncccc1CSc1nc(C)cc(O)n1 [2-{[(2-ethylpyridin-3-yl)methyl]sulfanyl}-6-methylpyrimidin-4-ol] |  | 10.46 ± 1.16 s | 
Oc1cc(C(F)(F)F)nc(SCc2c(Cl)cncc2Cl)n1 [2-{[(3,5-dichloropyridin-4-yl)methyl]sulfanyl}-6-(trifluoromethyl)pyrimidin-4-ol] | 5.77 ± 1.01 g | 11.7 ± 1.43 s | 
Cc1cc(O)nc(SCc2c(Cl)cncc2Cl)n1 [2-{[(3,5-dichloropyridin-4-yl)methyl]sulfanyl}-6-methylpyrimidin-4-ol] | 9.13 ± 1.60 g | 14.49 ± 1.24 s | Protected Animals/tested animals ([3]; 15 minutes post-treatment): 3/4; Protected Animals/tested animals ([3]; 30 minutes post-treatment): 3/4; Protected Animals/tested animals ([3]; 60 minutes post-treatment): 3/4; Protected Animals/tested animals ([3]; 120 minutes post-treatment): 1/4; Protected Animals/tested animals ([3]; 240 minutes post-treatment): 0/4
CCc1cncc(CC)c1CSc1nc(O)cc(C(F)(F)F)n1 [2-{[(3,5-diethylpyridin-4-yl)methyl]sulfanyl}-6-(trifluoromethyl)pyrimidin-4-ol] | 6.04 ± 1.17 g |  | 
CCc1cncc(Cl)c1CSc1nc(C)cc(O)n1 [2-{[(3-chloro-5-ethylpyridin-4-yl)methyl]sulfanyl}-6-methylpyrimidin-4-ol] | 8.73 ± 1.75 g |  | 
Cc1cc(O)nc(SCc2nn(C)cc2Cl)n1 [2-{[(4-chloro-1-methyl-1H-pyrazol-3-yl)methyl]sulfanyl}-6-methylpyrimidin-4-ol] |  | 11.98 ± 1.71 s | 
Cc1cc(O)nc(SCc2c(Cl)ccc(Cl)c2Cl)n1 [6-methyl-2-{[(2,3,6-trichlorophenyl)methyl]sulfanyl}pyrimidin-4-ol] | 6.24 ± 1.48 g |  | Protected Animals/tested animals ([3]; 15 minutes post-treatment): 1/4; Protected Animals/tested animals ([3]; 30 minutes post-treatment): 3/4; Protected Animals/tested animals ([3]; 60 minutes post-treatment): 2/4; Protected Animals/tested animals ([3]; 120 minutes post-treatment): 1/4; Protected Animals/tested animals ([3]; 240 minutes post-treatment): 0/4
CCc1ncsc1CSc1nc(O)cc(C(F)(F)F)n1 [Example 164, 2-{[(4-ethyl-1,3-thiazol-5-yl)methyl]sulfanyl}-6-(trifluoromethyl)pyrimidin-4-ol] |  | 10.45 ± 0.47 s | 
